Source: PubChem BioAssay AID2060885 (Molecular Pharmacology Branch, DTP, NCI, 2025)

Test system: NCI-H23 complex spheroids with HUVEC/MSC, viability
Experiment: Anticancer human tumor NCI-H23 cell line growth inhibition [RAS];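 further: spheroids exposed to compound for 7 days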;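 on viability, T/C: 100% = DMSO vehicle control viability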
Conditions: for IC50: curve of first compound; for viability, T/C: stronger effect = lower value
Summary of the method: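 Multi-cell-type spheroids: tumor cells plus HUVEC endothelial cells and mesenchymal stem cells. RAS-pathway inhibitors were combined with targeted agents, each dosed in half-log steps down from clinical Cmax, or from 10 microM when Cmax was unknown.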

[1] = second compound 0.0316 µM, first compound 0.00316 µM
[2] = second compound 0.0316 µM, first compound 0.01 µM
[3] = second compound 0.0316 µM, first compound 0.0316 µM
[4] = second compound 0.0316 µM, first compound 0.1 µM
[5] = second compound 0.0316 µM, first compound 0.316 µM
[6] = second compound 0.0316 µM, first compound 1 µM
[7] = second compound 0.1 µM, first compound 0.00316 µM
[8] = second compound 0.1 µM, first compound 0.01 µM
[9] = second compound 0.1 µM, first compound 0.0316 µM
[10] = second compound 0.1 µM, first compound 0.1 µM
[11] = second compound 0.1 µM, first compound 0.316 µM
[12] = second compound 0.1 µM, first compound 1 µM
[13] = second compound 0.316 µM, first compound 0.00316 µM
[14] = second compound 0.316 µM, first compound 0.01 µM
[15] = second compound 0.316 µM, first compound 0.0316 µM
[16] = second compound 0.316 µM, first compound 0.1 µM
[17] = second compound 0.316 µM, first compound 0.316 µM
[18] = second compound 0.316 µM, first compound 1 µM
[19] = second compound 1 µM, first compound 0.00316 µM
[20] = second compound 1 µM, first compound 0.01 µM
[21] = second compound 1 µM, first compound 0.0316 µM
[22] = second compound 1 µM, first compound 0.1 µM
[23] = second compound 1 µM, first compound 0.316 µM
[24] = second compound 1 µM, first compound 1 µM
[25] = second compound 0.0316 µM, first compound 0.000949 µM
[26] = second compound 0.0316 µM, first compound 0.003 µM
[27] = second compound 0.0316 µM, first compound 0.00949 µM
[28] = second compound 0.0316 µM, first compound 0.03 µM
[29] = second compound 0.0316 µM, first compound 0.0949 µM
[30] = second compound 0.0316 µM, first compound 0.3 µM
[31] = second compound 0.1 µM, first compound 0.000949 µM
[32] = second compound 0.1 µM, first compound 0.003 µM
[33] = second compound 0.1 µM, first compound 0.00949 µM
[34] = second compound 0.1 µM, first compound 0.03 µM
[35] = second compound 0.1 µM, first compound 0.0949 µM
[36] = second compound 0.1 µM, first compound 0.3 µM
[37] = second compound 0.316 µM, first compound 0.000949 µM
[38] = second compound 0.316 µM, first compound 0.003 µM
[39] = second compound 0.316 µM, first compound 0.00949 µM
[40] = second compound 0.316 µM, first compound 0.03 µM
[41] = second compound 0.316 µM, first compound 0.0949 µM
[42] = second compound 0.316 µM, first compound 0.3 µM
[43] = second compound 1 µM, first compound 0.000949 µM
[44] = second compound 1 µM, first compound 0.003 µM
[45] = second compound 1 µM, first compound 0.00949 µM
[46] = second compound 1 µM, first compound 0.03 µM
[47] = second compound 1 µM, first compound 0.0949 µM
[48] = second compound 1 µM, first compound 0.3 µM
[49] = second compound 3.16 µM, first compound 0.000949 µM
[50] = second compound 3.16 µM, first compound 0.003 µM
[51] = second compound 3.16 µM, first compound 0.00949 µM
[52] = second compound 3.16 µM, first compound 0.03 µM
[53] = second compound 3.16 µM, first compound 0.0949 µM
[54] = second compound 3.16 µM, first compound 0.3 µM
[55] = second compound 10 µM, first compound 0.000949 µM
[56] = second compound 10 µM, first compound 0.003 µM
[57] = second compound 10 µM, first compound 0.00949 µM
[58] = second compound 10 µM, first compound 0.03 µM
[59] = second compound 10 µM, first compound 0.0949 µM
[60] = second compound 10 µM, first compound 0.3 µM

Structure (SMILES): C=CC(=O)N1CCN(c2nc(OCC3CCCN3C)nc3c(F)c(-c4nc(N)cc(C)c4C(F)(F)F)c(Cl)cc23)C(C)C1 (stereo not drawn) + C#Cc1c(F)ccc2cc(O)cc(-c3ncc4c(N5CC6CCC(C5)N6)nc(OCC56CCCN5CC(F)C6)nc4c3F)c12
- IC50 (second compound 0.0316 µM): 11.5 nM
- IC50 (second compound 0.1 µM): 19.2 nM
- IC50 (second compound 0.316 µM): 24.2 nM
- IC50 (second compound 1 µM): 13.8 nM
- IC50 (second compound 3.16 µM): 11.3 nM
- IC50 (second compound 10 µM): < 3.16 nM
- viability, T/C [1]: 72.4%
- viability, T/C [2]: 52.6%
- viability, T/C [3]: 40.5%
- viability, T/C [4]: 35.5%
- viability, T/C [5]: 38%
- viability, T/C [6]: 36.3%
- viability, T/C [7]: 80.7%
- viability, T/C [8]: 58.2%
- viability, T/C [9]: 45.3%
- viability, T/C [10]: 35.7%
- viability, T/C [11]: 30.3%
- viability, T/C [12]: 42.2%
- viability, T/C [13]: 65.2%
- viability, T/C [14]: 61.3%
- viability, T/C [15]: 46.5%
- viability, T/C [16]: 37.9%
- viability, T/C [17]: 35%
- viability, T/C [18]: 37.2%
- viability, T/C [19]: 83.2%
- viability, T/C [20]: 54.5%
- viability, T/C [21]: 37.7%
- viability, T/C [22]: 39.2%
- viability, T/C [23]: 39.5%
- viability, T/C [24]: 37.7%
- viability, T/C (second compound 3.16 µM, first compound 0.00316 µM): 59.9%
- viability, T/C (second compound 3.16 µM, first compound 0.01 µM): 55.9%
- viability, T/C (second compound 3.16 µM, first compound 0.0316 µM): 38.4%
- viability, T/C (second compound 3.16 µM, first compound 0.1 µM): 42.3%
- viability, T/C (second compound 3.16 µM, first compound 0.316 µM): 39.8%
- viability, T/C (second compound 3.16 µM, first compound 1 µM): 38.5%
- viability, T/C (second compound 10 µM, first compound 0.00316 µM): 35.7%
- viability, T/C (second compound 10 µM, first compound 0.01 µM): 39.6%
- viability, T/C (second compound 10 µM, first compound 0.0316 µM): 42.4%
- viability, T/C (second compound 10 µM, first compound 0.1 µM): 32.3%
- viability, T/C (second compound 10 µM, first compound 0.316 µM): 30.4%
- viability, T/C (second compound 10 µM, first compound 1 µM): 33.5%

Structure (SMILES): CC1(C)CCC(Nc2ncc(C(F)(F)F)c(-c3c[nH]c4c(P(C)(C)=O)c(C#N)ccc34)n2)CN1 (stereo not drawn) + C#Cc1c(F)ccc2cc(O)cc(-c3ncc4c(N5CC6CCC(C5)N6)nc(OCC56CCCN5CC(F)C6)nc4c3F)c12
- IC50 (second compound 0.0316 µM): 25.3 nM
- IC50 (second compound 0.1 µM): > 300 nM
- IC50 (second compound 0.316 µM): 13.3 nM
- IC50 (second compound 1 µM): 5.95 nM
- IC50 (second compound 3.16 µM): < 0.949 nM
- IC50 (second compound 10 µM): < 0.949 nM
- viability, T/C [25]: 77.4%
- viability, T/C [26]: 95.5%
- viability, T/C [27]: 64.1%
- viability, T/C [28]: 46.9%
- viability, T/C [29]: 42.9%
- viability, T/C [30]: 53%
- viability, T/C [31]: 105%
- viability, T/C [32]: 87.7%
- viability, T/C [33]: 60.6%
- viability, T/C [34]: 46.7%
- viability, T/C [35]: 44.5%
- viability, T/C [36]: 59.2%
- viability, T/C [37]: 82.9%
- viability, T/C [38]: 75.6%
- viability, T/C [39]: 52.2%
- viability, T/C [40]: 44.8%
- viability, T/C [41]: 35.6%
- viability, T/C [42]: 40.8%
- viability, T/C [43]: 83.2%
- viability, T/C [44]: 60.8%
- viability, T/C [45]: 42.7%
- viability, T/C [46]: 38.2%
- viability, T/C [47]: 39%
- viability, T/C [48]: 36.8%
- viability, T/C [49]: 45%
- viability, T/C [50]: 37.9%
- viability, T/C [51]: 33%
- viability, T/C [52]: 28.4%
- viability, T/C [53]: 33%
- viability, T/C [54]: 31.4%
- viability, T/C [55]: 29.7%
- viability, T/C [56]: 29.1%
- viability, T/C [57]: 25.1%
- viability, T/C [58]: 21.7%
- viability, T/C [59]: 19.3%
- viability, T/C [60]: 18.4%

Structure (SMILES): CCc1c2c(nc3ccc(O)cc13)-c1cc3c(c(=O)n1C2)COC(=O)[C@]3(O)CC + C#Cc1c(F)ccc2cc(O)cc(-c3ncc4c(N5CC6CCC(C5)N6)nc(OCC56CCCN5CC(F)C6)nc4c3F)c12
- IC50 (second compound 0.0316 µM): 5.66 nM
- IC50 (second compound 0.1 µM): 4.78 nM
- IC50 (second compound 0.316 µM): 4.89 nM
- IC50 (second compound 1 µM): 2.89 nM
- IC50 (second compound 3.16 µM): 1.25 nM
- IC50 (second compound 10 µM): < 0.949 nM
- viability, T/C [25]: 74.6%
- viability, T/C [26]: 75.5%
- viability, T/C [27]: 29.9%
- viability, T/C [28]: 13.3%
- viability, T/C [29]: 9.2%
- viability, T/C [30]: 5.86%
- viability, T/C [31]: 87.8%
- viability, T/C [32]: 64.6%
- viability, T/C [33]: 28.2%
- viability, T/C [34]: 14.7%
- viability, T/C [35]: 9.07%
- viability, T/C [36]: 6.92%
- viability, T/C [37]: 96.7%
- viability, T/C [38]: 67.8%
- viability, T/C [39]: 25.4%
- viability, T/C [40]: 12.8%
- viability, T/C [41]: 9.27%
- viability, T/C [42]: 5.24%
- viability, T/C [43]: 86.9%
- viability, T/C [44]: 49.4%
- viability, T/C [45]: 18.9%
- viability, T/C [46]: 12.2%
- viability, T/C [47]: 7.17%
- viability, T/C [48]: 4.02%
- viability, T/C [49]: 56.1%
- viability, T/C [50]: 30.8%
- viability, T/C [51]: 11.7%
- viability, T/C [52]: 5.93%
- viability, T/C [53]: 3.68%
- viability, T/C [54]: 2.2%
- viability, T/C [55]: 31.7%
- viability, T/C [56]: 20.2%
- viability, T/C [57]: 8.85%
- viability, T/C [58]: 5.36%
- viability, T/C [59]: 3.22%
- viability, T/C [60]: 2.27%

Structure (SMILES): C=CC(=O)Nc1cc(Nc2nccc(-c3cn(C)c4ccccc34)n2)c(OC)cc1N(C)CCN(C)C + C=CC(=O)N1CCN(c2nc(OCC3CCCN3C)nc3c(F)c(-c4nc(N)cc(C)c4C(F)(F)F)c(Cl)cc23)C(C)C1
- IC50 (second compound 0.00316 µM): 1000 nM
- IC50 (second compound 0.01 µM): 7.6 nM
- IC50 (second compound 0.0316 µM): 3.62 nM
- IC50 (second compound 0.1 µM): < 3.16 nM
- IC50 (second compound 0.316 µM): < 3.16 nM
- IC50 (second compound 1 µM): < 3.16 nM
- viability, T/C (second compound 0.00316 µM, first compound 0.00316 µM): 66.1%
- viability, T/C (second compound 0.00316 µM, first compound 0.01 µM): 83.2%
- viability, T/C (second compound 0.00316 µM, first compound 0.0316 µM): 56.1%
- viability, T/C (second compound 0.00316 µM, first compound 0.1 µM): 53.5%
- viability, T/C (second compound 0.00316 µM, first compound 0.316 µM): 57.2%
- viability, T/C (second compound 0.00316 µM, first compound 1 µM): 49.6%
- viability, T/C (second compound 0.01 µM, first compound 0.00316 µM): 51.5%
- viability, T/C (second compound 0.01 µM, first compound 0.01 µM): 52.9%
- viability, T/C (second compound 0.01 µM, first compound 0.0316 µM): 45.1%
- viability, T/C (second compound 0.01 µM, first compound 0.1 µM): 36.9%
- viability, T/C (second compound 0.01 µM, first compound 0.316 µM): 43.1%
- viability, T/C (second compound 0.01 µM, first compound 1 µM): 37.1%
- viability, T/C [1]: 49.4%
- viability, T/C [2]: 48.3%
- viability, T/C [3]: 40.4%
- viability, T/C [4]: 35.2%
- viability, T/C [5]: 37.1%
- viability, T/C [6]: 33.6%
- viability, T/C [7]: 45%
- viability, T/C [8]: 39.4%
- viability, T/C [9]: 33.8%
- viability, T/C [10]: 34.4%
- viability, T/C [11]: 29.6%
- viability, T/C [12]: 27.3%
- viability, T/C [13]: 44.7%
- viability, T/C [14]: 43%
- viability, T/C [15]: 34%
- viability, T/C [16]: 32%
- viability, T/C [17]: 29.4%
- viability, T/C [18]: 35.5%
- viability, T/C [19]: 39.2%
- viability, T/C [20]: 41.5%
- viability, T/C [21]: 36.9%
- viability, T/C [22]: 34.9%
- viability, T/C [23]: 30.9%
- viability, T/C [24]: 28.3%
